Source: ChEMBL document CHEMBL4804284

How the values were obtained:
Set-up in all cases: scale not given: the % may be the effect or the level left
[1] = target: Serine/threonine-protein kinase Nek11 (Homo sapiens) (UniProt Q8NG66); experiment: Inhibition of DNA-tagged human NEK11 assessed as percent of control at 50000 nM by qPCR analysis relative to control
[2] = target: Serine/threonine-protein kinase MAK (Homo sapiens) (UniProt P20794); experiment: Inhibition of DNA-tagged human MAK assessed as percent of control at 50000 nM by qPCR analysis relative to control
[3] = target: Mitogen-activated protein kinase kinase kinase kinase 3 (Homo sapiens) (UniProt Q8IVH8); experiment: Inhibition of DNA-tagged human MAP4K3 assessed as percent of control at 50000 nM by qPCR analysis relative to control
[4] = target: Mitogen-activated protein kinase 3 (Homo sapiens) (UniProt P27361); experiment: Inhibition of DNA-tagged human ERK1 assessed as percent of control at 50000 nM by qPCR analysis relative to control
[5] = target: 5'-AMP-activated protein kinase catalytic subunit alpha-1 (Homo sapiens) (UniProt Q13131); experiment: Inhibition of DNA-tagged human AMPK-alpha1 assessed as percent of control at 50000 nM by qPCR analysis relative to control
[6] = target: Misshapen-like kinase 1 (Homo sapiens) (UniProt Q8N4C8); experiment: Inhibition of DNA-tagged human MINK assessed as percent of control at 50000 nM by qPCR analysis relative to control
[7] = tested on: Epidermal growth factor receptor (Homo sapiens), P00533 [UNDEFINED MUTATION]; experiment: Inhibition of DNA-tagged human EGFR S752-1759del mutant assessed as percent of control at 50000 nM by qPCR analysis relative to control
[8] = target: Ribosomal protein S6 kinase alpha-6 (Homo sapiens) (UniProt Q9UK32); experiment: Inhibition of DNA-tagged human C-terminal RSK4 kinase domain 2 assessed as percent of control at 50000 nM by qPCR analysis relative to control
[9] = target: Serine/threonine-protein kinase 16 (Homo sapiens) (UniProt O75716); experiment: Inhibition of DNA-tagged human STK16 assessed as percent of control at 50000 nM by qPCR analysis relative to control
[10] = target: SNF-related serine/threonine-protein kinase (Homo sapiens) (UniProt Q9NRH2); experiment: Inhibition of DNA-tagged human SNRK assessed as percent of control at 50000 nM by qPCR analysis relative to control
[11] = target: Cyclin-dependent kinase-like 1 (Homo sapiens) (UniProt Q00532); experiment: Inhibition of DNA-tagged human CDKL1 assessed as percent of control at 50000 nM by qPCR analysis relative to control
[12] = target: Dual specificity protein kinase CLK2 (Homo sapiens) (UniProt P49760); experiment: Inhibition of DNA-tagged human CLK2 assessed as percent of control at 50000 nM by qPCR analysis relative to control
[13] = target: Hepatocyte growth factor receptor (Homo sapiens) (UniProt P08581); experiment: Inhibition of DNA-tagged human MET assessed as percent of control at 50000 nM by qPCR analysis relative to control
[14] = target: cAMP-dependent protein kinase catalytic subunit PRKX (Homo sapiens) (UniProt P51817); experiment: Inhibition of DNA-tagged human PRKX assessed as percent of control at 50000 nM by qPCR analysis relative to control
[15] = target: Vascular endothelial growth factor receptor 3 (Homo sapiens) (UniProt P35916); experiment: Inhibition of DNA-tagged human FLT4 assessed as percent of control at 50000 nM by qPCR analysis relative to control
[16] = target: Cyclin-dependent kinase 2 (Homo sapiens) (UniProt P24941); experiment: Inhibition of DNA-tagged human CDK2 assessed as percent of control at 50000 nM by qPCR analysis relative to control
[17] = tested on: Epidermal growth factor receptor (Homo sapiens), P00533 [L858R,T790M]; experiment: Inhibition of DNA-tagged human EGFR L858R/T790M double mutant assessed as percent of control at 50000 nM by qPCR analysis relative to control
[18] = target: Mitogen-activated protein kinase kinase kinase 6 (Homo sapiens) (UniProt O95382); experiment: Inhibition of DNA-tagged human ASK2 assessed as percent of control at 50000 nM by qPCR analysis relative to control
[19] = target: Dual specificity mitogen-activated protein kinase kinase 6 (Homo sapiens) (UniProt P52564); experiment: Inhibition of DNA-tagged human MEK6 assessed as percent of control at 50000 nM by qPCR analysis relative to control
[20] = target: Mast/stem cell growth factor receptor Kit (Homo sapiens) (UniProt P10721); experiment: Inhibition of DNA-tagged human KIT assessed as percent of control at 50000 nM by qPCR analysis relative to control
[21] = target: Protein kinase C eta type (Homo sapiens) (UniProt P24723); experiment: Inhibition of DNA-tagged human PRKCH assessed as percent of control at 50000 nM by qPCR analysis relative to control
[22] = target: Ephrin type-A receptor 7 (Homo sapiens) (UniProt Q15375); experiment: Inhibition of DNA-tagged human EPHA7 assessed as percent of control at 50000 nM by qPCR analysis relative to control
[23] = target: Interferon-induced, double-stranded RNA-activated protein kinase (Homo sapiens) (UniProt P19525); experiment: Inhibition of DNA-tagged human PRKR assessed as percent of control at 50000 nM by qPCR analysis relative to control
[24] = target: Mitogen-activated protein kinase kinase kinase kinase 2 (Homo sapiens) (UniProt Q12851); experiment: Inhibition of DNA-tagged human MAP4K2 assessed as percent of control at 50000 nM by qPCR analysis relative to control
[25] = target: Activin receptor type-1-like (Homo sapiens) (UniProt P37023); experiment: Inhibition of DNA-tagged human ACVRL1 assessed as percent of control at 50000 nM by qPCR analysis relative to control
[26] = target: Serine/threonine-protein kinase PAK 3 (Homo sapiens) (UniProt O75914); experiment: Inhibition of DNA-tagged human PAK3 assessed as percent of control at 50000 nM by qPCR analysis relative to control
[27] = target: Calcium-dependent protein kinase 1 (Plasmodium falciparum) (UniProt P62344); experiment: Inhibition of DNA-tagged Plasmodium falciparum CDPK1 assessed as percent of control at 50000 nM by qPCR analysis relative to control
[28] = target: Phosphatidylinositol 5-phosphate 4-kinase type-2 beta (Homo sapiens) (UniProt P78356); experiment: Inhibition of DNA-tagged human PIP5K2B assessed as percent of control at 50000 nM by qPCR analysis relative to control
[29] = target: Protein kinase C delta type (Homo sapiens) (UniProt Q05655); experiment: Inhibition of DNA-tagged human PRKCD assessed as percent of control at 50000 nM by qPCR analysis relative to control
[30] = target: Serine/threonine-protein kinase 4 (Homo sapiens) (UniProt Q13043); experiment: Inhibition of DNA-tagged human MST1 assessed as percent of control at 50000 nM by qPCR analysis relative to control

Chain of Mitogen-activated protein kinase kinase kinase kinase 2 (Homo sapiens) (Q12851 whole entry): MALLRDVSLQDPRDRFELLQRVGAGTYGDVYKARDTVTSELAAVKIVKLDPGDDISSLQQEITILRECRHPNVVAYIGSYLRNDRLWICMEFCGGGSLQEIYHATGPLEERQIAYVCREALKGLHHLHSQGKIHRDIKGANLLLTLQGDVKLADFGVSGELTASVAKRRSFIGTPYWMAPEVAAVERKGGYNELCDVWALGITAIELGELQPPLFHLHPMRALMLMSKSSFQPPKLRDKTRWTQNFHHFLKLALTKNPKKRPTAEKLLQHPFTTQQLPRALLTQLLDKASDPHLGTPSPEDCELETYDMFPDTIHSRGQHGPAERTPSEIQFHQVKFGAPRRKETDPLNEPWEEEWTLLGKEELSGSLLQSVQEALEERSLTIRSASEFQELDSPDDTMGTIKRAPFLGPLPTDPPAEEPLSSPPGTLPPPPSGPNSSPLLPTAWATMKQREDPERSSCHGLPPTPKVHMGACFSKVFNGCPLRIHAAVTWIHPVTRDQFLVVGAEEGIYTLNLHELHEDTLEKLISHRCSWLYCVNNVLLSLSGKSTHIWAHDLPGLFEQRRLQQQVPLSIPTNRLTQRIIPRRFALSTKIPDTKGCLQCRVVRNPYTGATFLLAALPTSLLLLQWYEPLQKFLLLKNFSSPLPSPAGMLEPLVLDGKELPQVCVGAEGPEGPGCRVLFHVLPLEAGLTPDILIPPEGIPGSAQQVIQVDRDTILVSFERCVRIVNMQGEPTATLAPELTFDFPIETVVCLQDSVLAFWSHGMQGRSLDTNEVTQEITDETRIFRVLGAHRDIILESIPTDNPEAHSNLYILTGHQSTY
Chain of Ephrin type-A receptor 7 (Homo sapiens) (Q15375 28-998 limits assumed): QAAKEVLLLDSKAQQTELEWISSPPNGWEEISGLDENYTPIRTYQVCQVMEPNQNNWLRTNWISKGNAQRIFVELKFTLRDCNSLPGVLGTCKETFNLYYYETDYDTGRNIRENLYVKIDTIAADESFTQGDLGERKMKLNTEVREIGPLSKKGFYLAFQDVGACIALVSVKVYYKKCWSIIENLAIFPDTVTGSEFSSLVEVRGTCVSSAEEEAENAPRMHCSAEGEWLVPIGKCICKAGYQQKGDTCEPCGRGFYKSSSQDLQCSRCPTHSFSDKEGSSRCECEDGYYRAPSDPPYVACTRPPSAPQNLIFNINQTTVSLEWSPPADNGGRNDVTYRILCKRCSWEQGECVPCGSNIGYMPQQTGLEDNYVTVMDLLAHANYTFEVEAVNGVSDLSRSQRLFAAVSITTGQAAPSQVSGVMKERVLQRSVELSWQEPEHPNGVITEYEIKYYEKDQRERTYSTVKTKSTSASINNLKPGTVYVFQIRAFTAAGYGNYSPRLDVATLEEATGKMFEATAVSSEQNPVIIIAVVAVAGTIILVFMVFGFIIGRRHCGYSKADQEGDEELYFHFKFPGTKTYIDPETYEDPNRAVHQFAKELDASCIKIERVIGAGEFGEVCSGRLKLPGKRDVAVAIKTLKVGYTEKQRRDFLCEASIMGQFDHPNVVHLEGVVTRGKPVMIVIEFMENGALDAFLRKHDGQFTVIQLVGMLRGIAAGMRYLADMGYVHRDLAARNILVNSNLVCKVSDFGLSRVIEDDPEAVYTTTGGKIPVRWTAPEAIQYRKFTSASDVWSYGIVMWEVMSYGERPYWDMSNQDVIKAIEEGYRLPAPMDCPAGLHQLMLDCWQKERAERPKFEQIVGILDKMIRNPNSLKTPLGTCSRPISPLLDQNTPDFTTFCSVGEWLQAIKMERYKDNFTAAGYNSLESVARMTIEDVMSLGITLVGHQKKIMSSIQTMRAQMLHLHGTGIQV
Chain of 5'-AMP-activated protein kinase catalytic subunit alpha-1 (Homo sapiens) (Q13131 whole entry, looked up): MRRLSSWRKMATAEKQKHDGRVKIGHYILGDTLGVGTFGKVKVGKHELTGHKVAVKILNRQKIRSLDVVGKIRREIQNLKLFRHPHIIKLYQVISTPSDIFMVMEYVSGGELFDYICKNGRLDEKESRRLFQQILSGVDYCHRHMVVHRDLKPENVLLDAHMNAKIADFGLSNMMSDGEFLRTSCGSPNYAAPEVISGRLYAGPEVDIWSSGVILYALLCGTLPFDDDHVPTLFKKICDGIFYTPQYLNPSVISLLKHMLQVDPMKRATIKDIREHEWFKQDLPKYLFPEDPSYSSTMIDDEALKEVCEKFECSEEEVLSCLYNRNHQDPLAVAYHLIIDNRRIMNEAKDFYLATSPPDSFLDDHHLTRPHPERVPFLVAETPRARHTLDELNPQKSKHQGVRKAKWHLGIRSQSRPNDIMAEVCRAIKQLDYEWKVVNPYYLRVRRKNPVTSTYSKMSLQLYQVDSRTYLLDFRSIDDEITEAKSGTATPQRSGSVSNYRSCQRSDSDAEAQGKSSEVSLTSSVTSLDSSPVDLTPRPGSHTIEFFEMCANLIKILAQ
Chain of Ribosomal protein S6 kinase alpha-6 (Homo sapiens) (Q9UK32 whole entry, the tested form may be a part): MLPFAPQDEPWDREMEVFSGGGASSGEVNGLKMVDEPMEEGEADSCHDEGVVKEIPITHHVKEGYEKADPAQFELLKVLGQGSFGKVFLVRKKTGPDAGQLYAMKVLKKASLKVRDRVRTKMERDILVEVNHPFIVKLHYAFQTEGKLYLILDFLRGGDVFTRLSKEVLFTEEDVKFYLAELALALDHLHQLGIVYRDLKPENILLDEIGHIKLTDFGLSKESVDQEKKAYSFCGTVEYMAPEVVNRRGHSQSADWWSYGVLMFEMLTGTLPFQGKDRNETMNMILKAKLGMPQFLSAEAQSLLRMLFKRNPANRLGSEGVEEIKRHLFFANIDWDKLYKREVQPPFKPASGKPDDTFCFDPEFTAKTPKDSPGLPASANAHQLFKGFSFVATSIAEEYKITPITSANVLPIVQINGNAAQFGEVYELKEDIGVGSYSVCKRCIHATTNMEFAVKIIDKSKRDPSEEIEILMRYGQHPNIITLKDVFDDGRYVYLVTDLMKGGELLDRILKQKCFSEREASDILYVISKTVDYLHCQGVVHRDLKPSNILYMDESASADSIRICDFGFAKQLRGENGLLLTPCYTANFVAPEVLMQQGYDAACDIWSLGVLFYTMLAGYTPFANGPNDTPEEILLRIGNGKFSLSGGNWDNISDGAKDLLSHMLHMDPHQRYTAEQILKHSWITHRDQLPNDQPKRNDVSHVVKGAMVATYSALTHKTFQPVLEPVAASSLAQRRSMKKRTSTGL
Chain of SNF-related serine/threonine-protein kinase (Homo sapiens) (Q9NRH2 whole entry): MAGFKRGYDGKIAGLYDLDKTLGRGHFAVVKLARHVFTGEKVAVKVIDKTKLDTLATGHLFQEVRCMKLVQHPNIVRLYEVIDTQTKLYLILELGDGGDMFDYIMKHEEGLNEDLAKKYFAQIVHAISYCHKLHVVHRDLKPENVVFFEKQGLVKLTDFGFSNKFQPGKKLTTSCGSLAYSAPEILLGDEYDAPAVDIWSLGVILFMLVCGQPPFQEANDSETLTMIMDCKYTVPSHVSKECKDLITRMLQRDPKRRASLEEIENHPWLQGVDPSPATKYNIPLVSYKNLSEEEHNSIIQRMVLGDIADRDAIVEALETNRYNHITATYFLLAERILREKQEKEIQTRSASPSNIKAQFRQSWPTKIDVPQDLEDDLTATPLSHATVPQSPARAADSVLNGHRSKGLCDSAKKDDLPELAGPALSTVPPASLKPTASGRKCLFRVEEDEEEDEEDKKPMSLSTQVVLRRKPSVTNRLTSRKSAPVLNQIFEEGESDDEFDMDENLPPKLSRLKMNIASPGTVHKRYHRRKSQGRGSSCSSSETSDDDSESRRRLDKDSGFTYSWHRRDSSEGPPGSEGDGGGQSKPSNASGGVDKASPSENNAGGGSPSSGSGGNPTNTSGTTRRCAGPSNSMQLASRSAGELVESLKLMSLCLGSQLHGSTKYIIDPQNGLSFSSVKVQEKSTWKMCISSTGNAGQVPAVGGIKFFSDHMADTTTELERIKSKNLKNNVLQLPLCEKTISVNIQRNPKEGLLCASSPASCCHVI
Chain of Protein kinase C eta type (Homo sapiens) (P24723 whole entry): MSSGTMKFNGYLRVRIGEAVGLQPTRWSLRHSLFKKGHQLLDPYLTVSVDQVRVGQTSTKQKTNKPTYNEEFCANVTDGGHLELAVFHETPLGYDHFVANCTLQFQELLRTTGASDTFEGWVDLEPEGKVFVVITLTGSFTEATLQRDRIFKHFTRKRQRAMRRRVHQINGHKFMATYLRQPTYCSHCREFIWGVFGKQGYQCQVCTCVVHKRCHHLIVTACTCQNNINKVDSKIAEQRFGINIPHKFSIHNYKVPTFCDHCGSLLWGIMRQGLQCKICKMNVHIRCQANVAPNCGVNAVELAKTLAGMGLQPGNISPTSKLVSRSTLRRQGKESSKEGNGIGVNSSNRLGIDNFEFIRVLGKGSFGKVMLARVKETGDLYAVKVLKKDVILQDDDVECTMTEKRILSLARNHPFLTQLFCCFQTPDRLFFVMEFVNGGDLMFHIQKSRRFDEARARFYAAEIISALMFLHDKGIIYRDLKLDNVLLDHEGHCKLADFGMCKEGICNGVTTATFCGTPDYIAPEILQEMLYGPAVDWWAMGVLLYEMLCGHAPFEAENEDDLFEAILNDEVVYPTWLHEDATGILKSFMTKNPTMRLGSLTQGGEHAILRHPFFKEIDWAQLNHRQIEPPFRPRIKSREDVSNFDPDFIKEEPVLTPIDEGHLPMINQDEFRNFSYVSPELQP
Chain of Mitogen-activated protein kinase 3 (Homo sapiens) (P27361 whole entry): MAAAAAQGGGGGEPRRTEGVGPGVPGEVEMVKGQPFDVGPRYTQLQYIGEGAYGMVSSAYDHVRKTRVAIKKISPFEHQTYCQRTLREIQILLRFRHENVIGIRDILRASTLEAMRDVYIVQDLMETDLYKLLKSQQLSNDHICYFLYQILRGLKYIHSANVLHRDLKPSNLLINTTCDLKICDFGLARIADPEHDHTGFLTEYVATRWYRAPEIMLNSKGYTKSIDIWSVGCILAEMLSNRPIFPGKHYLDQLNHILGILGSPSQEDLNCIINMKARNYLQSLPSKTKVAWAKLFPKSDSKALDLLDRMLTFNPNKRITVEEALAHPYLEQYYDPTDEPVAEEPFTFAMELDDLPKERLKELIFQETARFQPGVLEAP

SMILES: CN1C(=O)/C(=C2/C(=O)Nc3ccccc32)c2ccccc21
- Activity [1]: 100%
- Activity [2]: 71%
- Activity [3]: 90%
- Activity [4]: 100%
- Activity [5]: 100%
- Activity [6]: 75%
- Activity [7]: 88%
- Activity [8]: 71%
- Activity [9]: 89%
- Activity [10]: 81%
- Activity [11]: 79%
- Activity [12]: 75%
- Activity [13]: 100%
- Activity [14]: 100%
- Activity [15]: 100%
- Activity [16]: 100%
- Activity [17]: 98%
- Activity [18]: 100%
- Activity [19]: 100%
- Activity [20]: 94%
- Activity [21]: 100%
- Activity [22]: 100%
- Activity [23]: 80%
- Activity [24]: 92%
- Activity [25]: 100%
- Activity [26]: 93%
- Activity [27]: 87%
- Activity [28]: 100%
- Activity [29]: 100%
- Activity [30]: 95%
